Measurements from patent US8658403B2, “Method for producing polyhydroxyalkanoic acid” (priority 2009, dated 2014).

Experiments:
Type in all cases: cell-based, Pseudomonas fluorescens
[1] = test system: BM07-ΔphaZ; experiment: PHA production, one-step cultivation on 50 mM fructose and 5 mM 11-POU; details: 1 mM salicylic acid, 50 mM fructose + 5 mM 11-POU; for Dry cell weight / PHA (aliphatic monomer) / PHA (aromatic monomer) / Polyester content: 30° C.
Protocol: (§1) In the main cultures, 500 μl of the culture grown in NR or LB medium was transferred to 50 ml M1 mineral-salts medium containing 50 mM fructose, 5 mM 11-POU, 0 or 1 mM salicylic acid and 1.0 g/L ammonium sulfate in a 250 mL flask and cultivated at 30° C. Salicylic acid was dissolved by adding sodium hydroxide and the pH of the solution was adjusted to 7.2 before adding to medium. Cell growth was determined by measuring dry cell weight (DCW). The remaining fructose was measured using DNS method and the remaining 11-POU or other carboxylic acids were determined by gas chromatography. The cells were isolated by centrifuging (10,000×g, 10 min), the cell suspension was washed with methanol and dried under vacuum at room temperature for 48 hours. The remaining NH4^+ was measured using Nessler's reagent. In the time-course profiling experiments, a set of culture flasks equal to the planned sampling times (every 4 or 6 h) was prepared and cultivated under the same culture condition. One of the flasks was withdrawn every scheduled time and the medium (50 ml) was centrifuged and analyzed.
(§2) The monomer composition of the PHA in cells was determined by analyzing the methyl esters, recovered from a sulfuric acid/methanol treatment of the cells, using a Hewlett-Packard HP5890 Series II gas chromatograph equipped with a HP-1 capillary column and a flame ionization detector. The gas chromatography (GC) run conditions were as follows: initial temperature of 80° C. for 2 min; heating rate of 8° C./min; final temperature of 250° C. for 6.75 min; carrier (He) flow rate of 3 ml/min; injector temperature of 230° C.; and detector temperature of 280° C. The standardization of each GC peak was made against the PHA of known structure characterized by quantitative NMR analyses

[2] = test system: P. fluorescens BM07 wild-type; experiment: as above; details: 1 mM salicylic acid, 50 mM fructose + 5 mM 11-POU; for Dry cell weight / PHA (aliphatic monomer) / PHA (aromatic monomer) / Polyester content: 30° C.
Protocol: as §1, §2

[3] = test system: BM07 (pBBR-phaZ); experiment: PHA production on 50 mM fructose/5 mM 11-POU in PhaZ over-expressed strain; details: 1 mM salicylic acid
Protocol: as §1, with “In the time-course profiling experiments, a set of culture flasks equal to the planned sampling times (every 4 or 6 h) was prepared and cultivated under the same culture condition.” left out
The monomer composition of the PHA in cells was determined by analyzing the methyl esters, recovered from a sulfuric acid/methanol treatment of the cells, using a Hewlett-Packard HP5890 Series II gas chromatograph equipped with a HP-1 capillary column and a flame ionization detector. […] The standardization of each GC peak was made against the PHA of known structure characterized by quantitative NMR analyses

[4] = test system: BM07 wild-type; experiment: Aromatic PHA production, one-step cultivation on 50 mM fructose and 10 mM 5-PV or 6PC; details: 1 mM salicylic acid, 30° C.
Protocol: as §1, with “In the main cultures, 500 μl of the culture grown in NR or LB medium was transferred to 50 ml M1 mineral-salts medium containing 50 mM fructose, 5 mM 11-POU, 0 or 1 mM salicylic acid and 1.0 g/L ammonium sulfate in a 250 mL flask and cultivated at 30° C.” left out
as §2

[5] = test system: BM07-ΔphaZ; experiment: as above; details: 1 mM salicylic acid, 30° C., culture time 72 h
Protocol: as §1, with “In the main cultures, 500 μl of the culture grown in NR or LB medium was transferred to 50 ml M1 mineral-salts medium containing 50 mM fructose, 5 mM 11-POU, 0 or 1 mM salicylic acid and 1.0 g/L ammonium sulfate in a 250 mL flask and cultivated at 30° C.” left out
as §2

[6] = 50 mM fructose + 10 mM 5PV, culture time 72 h
[7] = 50 mM fructose + 10 mM 6PC, culture time 60 h

O=C(O)c1ccccc1O [Salicylic acid, salicylic acid]
Content of aliphatic MCL-monomer-units, share of the total PHA [1]: ~10% | Effect on accumulation of aromatic PHA from 11-POU [1]: significantly retarded the accumulation of aromatic PHA from 11-POU | Effect on cell growth [1]: did not significantly delay the cell growth | Time of maximum PHA accumulation [1]: around 70 hours | Time of maximum cell growth [1]: 50 to 60 h | Dry cell weight ([1]; culture time 72 h): 1.68 ± 0.11 g/L | PHA (aliphatic monomer) ([1]; culture time 72 h): 4.8 ± 0.3 wt. % | PHA (aromatic monomer) ([1]; culture time 72 h): 44.1 ± 1.6 wt. % | Polyester content ([1]; culture time 72 h): 48.9 ± 1.9 wt. % | Dry cell weight ([1]; culture time 96 h): 1.72 ± 0.09 g/L | PHA (aliphatic monomer) ([1]; culture time 96 h): 4.3 ± 0.4 wt. % | PHA (aromatic monomer) ([1]; culture time 96 h): 48.7 ± 1.4 wt. % | Polyester content ([1]; culture time 96 h): 53.0 ± 1.8 wt. % | Incorporation of aliphatic monomer-units, share of the total PHA content [2]: ~10% | Dry cell weight ([2]; culture time 48 h): 1.36 ± 0.10 g/L | PHA (aliphatic monomer) ([2]; culture time 48 h): 3.1 ± 0.2 wt. % | PHA (aromatic monomer) ([2]; culture time 48 h): 20.8 ± 0.9 wt. % | Polyester content ([2]; culture time 48 h): 23.9 ± 1.1 wt. % | Dry cell weight ([2]; culture time 72 h): 1.78 ± 0.06 g/L | PHA (aliphatic monomer) ([2]; culture time 72 h): 2.5 ± 0.5 wt. % | PHA (aromatic monomer) ([2]; culture time 72 h): 26.8 ± 1.6 wt. % | Polyester content ([2]; culture time 72 h): 29.3 ± 2.1 wt. % | Incorporation of aliphatic monomer-units, share of the total PHA content at the maximum accumulation [3]: < 4% | Aromatic PHA content [4, 6]: 34.2 ± 1.5 wt. % | Dry cell weight [4, 6]: 1.98 ± 0.08 g/L | Aromatic PHA content [4, 7]: 32.8 ± 1.7 wt. % | Dry cell weight [4, 7]: 1.78 ± 0.13 g/L | Aromatic PHA content ([5]; 50 mM fructose + 10 mM 5PV): 49.9 ± 1.3 wt. % | Dry cell weight ([5]; 50 mM fructose + 10 mM 5PV): 2.10 ± 0.06 g/L | Aromatic PHA content ([5]; 50 mM fructose + 10 mM 6PC): 35.1 ± 1.2 wt. % | Dry cell weight ([5]; 50 mM fructose + 10 mM 6PC): 1.72 ± 0.08 g/L
